Here are results for 15 compounds from PubChem BioAssay (NCI).

Test systems include HCT-116 colon; HOP-92 NSCLC; LOX IMVI melanoma; SF-268 CNS; SF-539 CNS; UO-31 renal; CCRF-CEM leukemia; U251 CNS.
Common to all, as to experiment: growth of human tumour cells (NCI), 48 h

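In this assay, cells in 96-well plates receive the compound at five concentrations for 48 hours. Endpoints are linearly interpolated between the surrounding concentrations. TGI denotes the concentration required for complete inhibition of growth.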

Turning to `O=C(CC1(O)C(=O)Nc2ccccc21)c1cccc(O)c1` (stereo not given), the TGI in the test with HCT-116 colon, with HOP-92 NSCLC, in the test with LOX IMVI melanoma, in the test on SF-268 CNS, in the test on SF-539 CNS and in the test with UO-31 renal was greater than 100 µM throughout.

On to `CCN(CC)c1ccc(N=Nc2ccc(-c3nc4cccnc4s3)cc2)cc1`, for which the TGI with CCRF-CEM leukemia, in the test on HCT-116 colon, in the test with HOP-92 NSCLC, in the test on SF-268 CNS, in the test on U251 CNS and with UO-31 renal was greater than 100 µM each time.

Consider `CCOC(=O)C(=O)CC(=O)C(Br)C(Br)c1ccc(Cl)cc1` (stereo not given), for which the TGI was 29.3 µM in the test with CCRF-CEM leukemia; 59.6 µM in the test with HOP-92 NSCLC; 78.1 µM in the test with LOX IMVI melanoma; greater than 100 µM in the test with SF-268 CNS; greater than 100 µM in the test with UO-31 renal.

For the compound `O=C1CCNC/C1=C\c1ccccc1`, the TGI in the test with HCT-116 colon stood at 47.4 µM; in the test on LOX IMVI melanoma it was 35.5 µM; in the test with SF-268 CNS, 45 µM; in the test on SF-539 CNS, 42.3 µM; with U251 CNS it was 38 µM; in the test with UO-31 renal, 35.5 µM.

In the case of `CC(C)(c1ccc(C=O)o1)c1ccc(C(C)(C)c2ccc(C=O)o2)o1`, the TGI with CCRF-CEM leukemia, with HCT-116 colon, in the test with HOP-92 NSCLC, in the test on LOX IMVI melanoma, in the test on SF-268 CNS and with SF-539 CNS was greater than 100 µM each time. This compound also returned a TGI with U251 CNS greater than 100 µM.

Regarding `O=[N+]([O-])c1ccc(N=P(c2ccccc2)(c2ccccc2)c2ccccc2)n2nnnc12`, the TGI was greater than 100 µM in the test on CCRF-CEM leukemia; 67.5 µM in the test with HOP-92 NSCLC; greater than 100 µM with LOX IMVI melanoma; greater than 100 µM in the test on SF-268 CNS; 50.9 µM in the test on SF-539 CNS; greater than 100 µM with U251 CNS. The TGI in the test on UO-31 renal was greater than 100 µM.

On to `COC1=CC(=O)C2(C=C1OC)OC[C@H]1Oc3c(ccc4c3C=CC(C)(C)O4)C(=O)[C@H]12` (stereo not given in full), for which the TGI is greater than 100 µM in the test on CCRF-CEM leukemia; greater than 100 µM with HCT-116 colon; 44.3 µM with HOP-92 NSCLC; greater than 100 µM in the test with LOX IMVI melanoma; greater than 100 µM in the test on SF-539 CNS; greater than 100 µM in the test with U251 CNS. The same compound displayed a TGI with UO-31 renal greater than 100 µM.

Turning to `CC(=O)OC1(C(C)=O)CC2(c3ccccc3)OC1(c1ccccc1)c1ccccc12` (stereo not given), the TGI in the test with HCT-116 colon, with HOP-92 NSCLC, in the test with LOX IMVI melanoma, with SF-268 CNS, in the test on SF-539 CNS and with U251 CNS was greater than 100 µM each time. Besides, in the test with UO-31 renal, the TGI worked out at 80.1 µM.

With `COC1=CC(=O)[C@@]2(C)C(C)[C@H](c3ccccc3)[C@H]2C1=O` (stereo not given in full), the TGI in the test with CCRF-CEM leukemia, in the test on HOP-92 NSCLC, in the test on LOX IMVI melanoma, in the test on SF-268 CNS, in the test with SF-539 CNS and with U251 CNS was greater than 100 µM throughout. In the test on UO-31 renal, this compound registered a TGI greater than 100 µM.

On to `CC(=O)OC1COC(N2C(=O)C(=O)c3ccccc32)C(OC(C)=O)C1OC(C)=O` (stereo not given), for which the TGI in the test on CCRF-CEM leukemia, in the test on HOP-92 NSCLC, in the test with LOX IMVI melanoma, with SF-268 CNS, in the test with SF-539 CNS and in the test with U251 CNS was greater than 100 µM throughout. The same compound displayed a TGI in the test with UO-31 renal greater than 100 µM.

As for `C#Cc1c(C)c(/C=C/C(C)=C\C(=O)OC)n(C)c1C`, the TGI with CCRF-CEM leukemia, in the test with HOP-92 NSCLC, with LOX IMVI melanoma, in the test on SF-268 CNS, in the test with SF-539 CNS and with U251 CNS was greater than 100 µM in each case. This compound registered a TGI with UO-31 renal greater than 100 µM.

For the compound `N#Cc1sc2nc3c(c(-c4ccccc4)c2c1N)CCCC3`, the TGI is greater than 100 µM in the test on CCRF-CEM leukemia; greater than 100 µM in the test on HCT-116 colon; greater than 100 µM with HOP-92 NSCLC; greater than 100 µM in the test with LOX IMVI melanoma; 56.2 µM in the test with SF-539 CNS; greater than 100 µM in the test on U251 CNS. This compound also returned a TGI in the test on UO-31 renal greater than 100 µM.

As for `CCOC(=O)C(Oc1ccc(OC)c2c1C(=O)CCC2)c1ccccc1` (stereo not given), the TGI in the test with CCRF-CEM leukemia, in the test with HCT-116 colon, with LOX IMVI melanoma, in the test on SF-268 CNS, in the test on SF-539 CNS and in the test on U251 CNS was greater than 100 µM in each case. Further, in the test on UO-31 renal, the TGI is greater than 100 µM.

`COC(OC)c1cccc2c1C(=O)CCC1(CC2)OCCCCO1`: the TGI with CCRF-CEM leukemia, with HCT-116 colon, in the test on LOX IMVI melanoma, in the test on SF-268 CNS, with SF-539 CNS and with U251 CNS was greater than 100 µM in each case. Further, the TGI in the test on UO-31 renal is greater than 100 µM.

For the compound `CN(C(=O)C12C3C4C1C1C2C3C41C#N)C(C)(C)C` (stereo not given), the TGI in the test on CCRF-CEM leukemia, in the test with HCT-116 colon, in the test with LOX IMVI melanoma, with SF-268 CNS, with SF-539 CNS and in the test with U251 CNS was greater than 100 µM each time. In the test on UO-31 renal, the TGI was greater than 100 µM.
